Values of other authors in patent US20150010635A1, “CONTROLLED RELEASE PARTICLES, WOOD TREATMENT AGENT, AND PRODUCING METHOD THEREOF” (Japan EnviroChemicals, Ltd., priority 2011, published 2015).
Where two headings read alike, the source gives them in different places.

Compound	water solubility (room temperature)	water solubility
CCN(CC)C(=O)c1cccc(C)c1 [DEET, N,N-diethyl-m-toluamide]	990 ppm	–
CCOc1ccc(C(C)(C)COCc2cccc(Oc3ccccc3)c2)cc1 [Ethofenprox, 2-(4-ethoxyphenyl)-2-methylpropyl-3-phenoxybenzylether]	–	22.5 ppb
CC1(C)C(C=C(Cl)Cl)C1C(=O)OCc1cccc(Oc2ccccc2)c1 (stereo not drawn) [Permethrin, 3-phenoxybenzyl(1RS,3RS;1RS,3SR)-3-(2,2-dichlorovinyl)-2,2-dimethylcyclopropanecarboxylate]	–	6 ppb
CCCC1COC(Cn2cncn2)(c2ccc(Cl)cc2Cl)O1 (stereo not shown) [Propiconazole, 1-[2-(2,4-dichlorophenyl)-4-n-propyl-1,3-dioxolane-2-ylmethyl]-1H-1,2,4-triazole]	110 ppm	–
